According to patent publication US8053573B2, “Monomer 5, 6-diphenyl-1.2.4-traizinic derivatives and the use thereof” (Pierre Fabre Dermo-Cosmetique, priority 2004, dated 2011):
Several values for one entry are separate records, joined by “and”; a condition that tells them apart may be missing. Identical values can stand only once.

Experiments:
Format in all cases: physicochemical
[1] = In vitro SPF in a primary formula (gel on PMMA plates); settings: PMMA plate, 1.2 mg/cm^2
Description: PMMA (polymethyl methacrylate) plates (50×50 mm, supplied by Europlast) were used.
The dose applied in the in vivo solar product evaluation protocols (2 mg/cm^2) is too high for the type of substrate employed here.
Gels were formulated from the triazines that are objects of this invention and certain reference filters. The molecules are solubilized in Transcutol® CG in a water bath. The solution is then placed under magnetic stirring and a gelling agent, Klucel HF (hydroxypropyl cellulose), is added at a concentration of 2%. Stirring is maintained for 30 minutes. SPF is measured using a Labsphere UV-1000 S Transmittance Analyzer spectrophotometer (Labsphere, North Sutton, N.H., USA).

[2] = In vitro SPF in a chemical solvent (Diffey and Robson); settings: ethyl acetate solution, 10 μg/ml, transmittance 290-400 nm
Description: The in vitro methods of determining the protective effectiveness of sun products consist of measuring by transmission spectrophotometry the absorption spectrum of the filter in solution or of the product applied on a substrate with the aim of simulating the surface of the skin. The effectiveness against UVB and/or UVA rays, or the effect on the cutaneous response, are then determined by calculation, taking into account or not the UV radiation action spectrum for the damage considered.
The Sayre/Agin and Diffey/Robson method, used since the 1990s, involves a comparative measurement, with the aid of an integrating-sphere spectroradiometer, of the transition from 290 nm to 400 nm in 5 nm steps, the sample being subjected to UV radiation from a stable known source covering the whole of the UV spectrum (unfiltered xenon).
Diffey and Robson evaluate the erythemal response by the following calculation:
[formula] E(λ)=spectral irradiation in W(m^−2) (nm^−1) at 40° N sun at 20° zenith angle ε=erythematous capacity
The Diffey and Robson formula makes it possible to determine SPF from the measurement of transmittance between 290 nm and 400 nm. Transmittance is measured in solution in ethyl acetate at a concentration of 10 μg/ml using a UV-visible spectrophotometer (Varian CARY 50 Scan).

[3] = Spectral distribution in UVA and UVB (290-400 nm); settings: range from 290 nm to 400 nm
From the text: The products tested are classified according to spectral distribution in UVA and UVB in a range from 290 nm to 400 nm.
It is possible to differentiate them according to their spectral distribution:
Products with a narrow spectrum: • Products absorbing in the range between 280 nm and 320 nm (UVB) • Products absorbing in the range between 320 nm and 400 nm (UVA) Products with a broad spectrum: • Products absorbing in UVB (280-320 nm) and UVA-II […] • Products covering UVB and UVA (280-400 nm).

[4] = Spectral characteristics: molar extinction coefficient and specific absorbance; settings: ethyl acetate, 10 μg/ml; for Maximum specific absorbance UVA / Maximum specific absorbance UVB: A1cm^1%
From the text: The calculation of the molar extinction coefficient (ε) is made from the Beer-Lambert law:
[formula] Wherein: A=absorbance I0=intensity of the incident light I=intensity of the transmitted light ε=molar extinction (or molar absorbance) coefficient in M^−1 cm^−1 l=path length in cm c=concentration in mol/l
The molar extinction coefficient can be expressed with respect to a given mass of the product. It thus makes it possible to be able to compare the coefficients of extinction between products for the same given quantity. This quantity is 1% by weight. The molar extinction coefficient thus becomes the specific absorbance (A1cm^1%).
[formula] Wherein: A1cm^1%=specific absorbance ε=molar extinction coefficient M=molar mass
The spectral characteristics of the compounds in comparison with commercial filters at a concentration of 10 μg/ml are summarized in tables 2-1 and 2-2.
Procedure: The products are dissolved in ethyl acetate to a concentration of 10 μg/ml. The spectra are measured using a dual-beam spectrophotometer (Varian CARY 50 Scan) between 290 nm and 400 nm.

[5] = Photostability in solution in a chemical solvent (Suntest CPS+); settings: 25 μg deposited from methanol, absorbance vs non-irradiated control, in % (unit assumed); for Photostability at 10 MED mean: Suntest irradiation 10 MED; for Photostability at 20 MED mean: Suntest irradiation 20 MED
From the text: A Suntest CPS+ (Atlas, Linsengenicht/Altenhasslan, Germany) was used. The Suntest makes it possible to reproduce the solar spectrum and thus to carry out exposures inside at any time without weather constraints.
The radiance of the solar simulator was carefully measured with a spectroradiometer (MSS 2044, Bielefeld, Germany). UVB and UVA intensities were 0.49 mW/cm^2 and 6.32 mW/cm^2, respectively. The MED value defined by COLIPA is 5.6 J/cm^2 in total UV (22). The UV total (UVA+UVB) accounts for 14.8% of the energy delivered by the lamp (power 460 W/m^2). An irradiation dose equivalent to 1 MED corresponds to 37.83 J/cm^2 (in total spectrum) delivered by the lamp.
The Suntest test duration is calculated using the following formula: t=H/E with: […]
The solutions of the compounds are prepared at a concentration of 500 μg/ml in methanol. 50 μl (25 μg) of each solution are deposited in a crystallizer, then irradiated in the Suntest at 5, 10 and/or 20 MED. A non-irradiated control is prepared (deposit of 50 μl of solution and addition of 2.450 ml of methanol). The solvent evaporates during irradiation and the products are taken up in 2.5 ml of methanol. After irradiation, the absorbance of each solution is measured with the UV-visible spectrophotometer (Varian CARY 50 Scan).

[6] = Solubility study in solvents or excipients used in cosmetics
[7] = Spectral characteristics: molar extinction coefficient and specific absorbance; settings: ethyl acetate, 10 μg/ml
[8] = single filter 3% in Transcutol CG / Klucel HF gel
[9] = Finsol V NT ® (C12-C15 alkyl benzoate)

For `CCCCC(CC)COc1ccc(-c2nc(-c3ccc(OC)cc3)nc(-c3ccc(OCC(CC)CCCC)cc3O)n2)c(O)c1` (stereo not shown) [Tinosorb S ®, reference compound], the SPF [1, 8] was 9.8, the SPF [2] was 76.19 and the Spectral distribution [3] was “absorb in UVB and UVA”. For the same molecule, the “Maximum specific absorbance UVA” value [4] was 789, the “Maximum specific absorbance UVB” value [4] was 751 and the “Maximum molar extinction coefficient UVA” value [4] was 49580 M⁻¹ cm⁻¹. For the same molecule, the “Maximum molar extinction coefficient UVB” value [4] was 47150 M⁻¹ cm⁻¹, the “Wavelength of maximum molar extinction coefficient UVA” value [4] was “at 345” and the “Wavelength of maximum molar extinction coefficient UVB” value [4] was “at 310”. For the same molecule, the “Wavelength of maximum specific absorbance UVA” value [4] was “at 345” and the “Wavelength of maximum specific absorbance UVB” value [4] was “at 310”.

With `CCCCC(CC)COC(=O)C=Cc1ccc(OC)cc1` (stereo not shown) [Parsol MCX ®, reference compound] the SPF ([1]; single filter 5% in Transcutol CG / Klucel HF gel) was 17.2, the SPF [2] was 20.78 and the “Maximum specific absorbance UVB” value [4] was 848. The “Maximum molar extinction coefficient UVB” value [4] was 24600 M⁻¹ cm⁻¹, the “Wavelength of maximum molar extinction coefficient UVB” value [4] was “at 310” and the “Wavelength of maximum specific absorbance UVB” value [4] was “at 310”. The “Photostability at 10 MED mean” value [5] was 33.38 and the “Photostability at 20 MED mean” value [5] was 11.63.

With `COc1ccc(-c2nnc(-c3ccc(O)cc3)nc2-c2ccc(OC)cc2)cc1` [JR65, 3-(4-hydroxyphenyl)-5,6-bis(4-methoxyphenyl)-1,2,4-triazine] the SPF [1, 8] was 9.8 and 10.9, the SPF [2] was 68.21 and the Spectral distribution [3] was “absorb in UVB”. The “Maximum specific absorbance UVB” value [4] was 809, the “Maximum molar extinction coefficient UVB” value [4] was 31100 M⁻¹ cm⁻¹ and the “Wavelength of maximum molar extinction coefficient UVB” value [4] was “at 315”. For the same molecule, the “Wavelength of maximum specific absorbance UVB” value [4] was “at 315”, the “Photostability at 10 MED mean” value [5] was 96.91 and the “Photostability at 20 MED mean” value [5] was 85.5. For the same molecule, the “Solubility (%)” value ([6]; Arlasolve DMI ® (dimethyl isosorbide)) was 8%, the “Solubility (%)” value ([6]; Butylene glycol) was 5% and the “Solubility (%)” value ([6]; Cetiol SN ® (decyl oleate)) was 1%. For the same molecule, the “Solubility (%)” value ([6]; Cetiol V ® (cetearyl isononanoate)) was 2%, the “Solubility (%)” value [6, 9] was 1% and the “Solubility (%)” value ([6]; Hexylene glycol) was 5%. For the same molecule, the “Solubility (%)” value ([6]; Isopropyl adipate) was 2%, the “Solubility (%)” value ([6]; Isopropyl myristate) was 5% and the “Solubility (%)” value ([6]; Myritol 318 ® (caprylic/capric triglycerides)) was 0.5%. The “Solubility (%)” value ([6]; PEG400 ® (polyethylene glycol)) was 5%.

For `CCCCCCCCCCCCOc1ccc(-c2nnc(-c3ccc(OC)cc3)c(-c3ccc(OC)cc3)n2)cc1` [JR173, 3-(4-dodecyloxyphenyl)-5,6-bis(4-methoxyphenyl)-1,2,4-triazine], the SPF [2] was 69.02, the Spectral distribution [3] was “absorb in UVB” and the “Maximum specific absorbance UVB” value [4] was 878 at. The “Maximum molar extinction coefficient UVB” value [4] was 48600 M⁻¹ cm⁻¹, the “Wavelength of maximum molar extinction coefficient UVB” value [4] was “at 305” and the “Wavelength of maximum specific absorbance UVB” value [4] was 305. For the same molecule, the “Solubility (%)” value [6, 9] was 7% and the “Solubility (%)” value ([6]; PEG400 ® (polyethylene glycol)) was 2%.

For `COc1ccc(-c2nnc(N)nc2-c2ccc(OC)cc2)cc1` [JR77, 3-amino-5,6-bis(4-methoxyphenyl)-1,2,4-triazine], the SPF [2] was 47.16, the Spectral distribution [3] was “absorb in UVB (280-320 nm) and UVA-II (280-340 nm)” and the “Maximum specific absorbance UVA” value [4] was 249. The “Maximum molar extinction coefficient UVA” value [4] was 7600 M⁻¹ cm⁻¹, the “Wavelength of maximum molar extinction coefficient UVA” value [4] was “at 360” and the “Wavelength of maximum specific absorbance UVA” value [4] was “at 360”. For the same molecule, the “Maximum specific absorbance UVC” value ([7]; A1cm^1%) was 631, the “Maximum molar extinction coefficient UVC” value [7] was 19300 M⁻¹ cm⁻¹ and the “Wavelength of maximum molar extinction coefficient UVC” value [7] was “at 280”. For the same molecule, the “Wavelength of maximum specific absorbance UVC” value [7] was “at 280”, the “Photostability at 10 MED mean” value [5] was 73.03 and the “Photostability at 20 MED mean” value [5] was 61.14.
